Where two headings read alike, the source gives them in different places.
Columns and labels:
[1] = system: Phakopsora pachyrhizi; assay: Asian soybean rust, whole-plant fungicidal activity (PHAKPA); assay type: in vivo; conditions: read-out: % Disease Control Rating PHAKPA
How it was run: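 Ten-day-old 'Williams 82' soybean seedlings sprayed to run-off with compound in acetone/water (1:9, 0.011% Tween-20), air-dried, then inoculated; 24 h dark dew room at 100% RH, then growth room. Disease severity scored 0–100% on sprayed leaves; percent control relative to untreated plants.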

[2] = system: Rhynchosporium commune; assay: Leaf blotch of barley, whole-plant fungicidal activity (RHYNSE); assay type: in vivo; conditions: 24 h, 1DP (1 day protectant), read-out: % Disease Control Rating RHYNSE
How it was run: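 Barley cv. 'Harrington' at full first-leaf emergence (7-10 seedlings per pot) was sprayed to run-off with compound in acetone plus nine volumes of water containing 110 ppm Triton X-100, air-dried, then inoculated with spore suspension. Plants spent two days in a dark dew room at 100% RH, then moved to greenhouse for disease development.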

[3] = system: Zymoseptoria tritici; assay: Septoria leaf blotch of wheat, whole-plant fungicidal activity (SEPTTR); assay type: in vivo, Zymoseptoria tritici on wheat plants (variety 'Yuma'); conditions: read-out: % Disease Control Rating SEPTTR
How it was run: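 Compounds in acetone, diluted with nine volumes of water containing 110 ppm Triton X-100, were sprayed to run-off on 'Yuma' wheat seedlings at full first-leaf emergence. Spore inoculation was 3 days before (3DC, curative) or 1 day after (1DP, protectant) treatment, then 3 days at 100% RH and greenhouse. First-leaf disease severity (0–100%) was scored relative to untreated plants as percent control.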

[4] = system: Cochliobolus sativus; assay: Spot blotch of barley, whole-plant fungicidal activity (COCHSA); assay type: in vivo; conditions: 1DP (1 day protectant), 200 ppm
Experimental: Technical grades of materials were dissolved in acetone, which were then mixed with nine volumes of water (H2O) containing 110 ppm Triton X-100. The fungicide solutions were applied onto wheat seedlings using an automated booth sprayer to run-off. All sprayed plants were allowed to air dry prior to further handling. All fungicides were evaluated using the aforementioned method for their activity vs. all target diseases, unless stated otherwise. Example E. Evaluation of Fungicidal Activity: Spot Blotch of Barley (Cochliobolus sativus Bayer Code COCHSA) Barley seedlings (variety ‘Harrington’) were propagated in soil-less potting mix, with each pot having 8 to 12 plants, and used for testing when the first leaf was fully emerged. Test plants were inoculated with a spore suspension of Cochliobolus sativus 24 h after fungicide treatments. After inoculation the plants were kept in […] for two days to permit spores to germinate and infect the leaf. The plants were then transferred to a greenhouse for disease to develop. Fungicide formulation, application and disease assessment followed the procedures as described in Example A.

[5] = system: Puccinia triticina; assay: Wheat brown rust, whole-plant fungicidal activity (PUCCRT); assay type: in vivo, Puccinia triticina on wheat plants (variety 'Yuma'); conditions: 24 h, 1DP (1 day protectant), read-out: % Disease Control Rating PUCCRT
How it was run: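 Wheat 'Yuma' seedlings at first-leaf stage sprayed to run-off with compound from acetone stock diluted in nine volumes water containing 110 ppm Triton X-100, then inoculated with Puccinia triticina spores. Held overnight in dark dew room at 100% RH, then greenhouse for disease development.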

melting point [°C]	Compound	pest or weed control at 200 ppm ([1]; 24 h, 1DP (1 day protectant)) [%]	pest or weed control at 200 ppm ([1]; 72 h, 3DC (3 day curative)) [%]	pest or weed control at 200 ppm [2] [%]	pest or weed control at 200 ppm ([3]; 24 h, 1DP (1 day protectant)) [%]	pest or weed control at 200 ppm ([3]; 72 h, 3DC (3 day curative)) [%]	% Disease Control Rating COCHSA [4]	pest or weed control at 200 ppm [5] [%]
–	CCN(C)/C=N/c1cc(C)c(C(=O)CC2CCCC2)cc1C [Compound 4]	> 85	> 85	> 85	> 85	50 to 85	A (>85%)	> 85
90 to 93	CCN(C)/C=N/c1cc(C)c(C(=O)Cc2ccc(C)cc2)cc1C [Compound 9]	> 85	> 85	> 85	< 20	< 20	A (>85%)	> 85

— patent US20240000075A1, “FUNGICIDAL ARYL AMIDINES” (CORTEVA AGRISCIENCE LLC, priority 2020, published 2024)
